Experimental data as given in patent US20210155604A1, “QUINAZOLINE COMPOUND SERVING AS EGFR TRIPLE MUTATION INHIBITOR AND APPLICATIONS THEREOF” (EAST CHINA UNIVERSITY OF SCIENCE AND TECHNOLOGY, priority 2018, published 2021).

Experiments:
EGFR L858R/T790M (LR/TM) = EGFR L858R/T790M (LR/TM) (Homo sapiens, UniProt P00533, L858R/T790M); test: ELISA kinase activity detection, EGFR double mutant; format: biochemical; conditions: ELISA-based EGFR-TK assay, ATP 5 μM, mean ± SD
[1] = target: T1, EGFR L858R/T790M/C797S (LR/TM/CS) (Homo sapiens, UniProt P00533, C797S/L858R/T790M); test: ELISA kinase activity detection, EGFR triple mutant; format: biochemical; conditions: ELISA-based EGFR-TK assay, ATP 5 μM, mean ± SD
T1 construct: purchased BPS Bioscience
Description: (§1) Tyrosine kinase: EGFR(WT) • EGFR^T790M/L858R(LR/TM) • EGFR^T790M/L858R/[…](LR/TM/CS)
(§2) ELISA Kinase Activity Detection
Enzyme-Linked Immunosorbent Assay (ELISA) was used to detect the ability of a kinase to phosphorylate a substrate and calculate the inhibitory effect of a compound on the kinase activity. The used kinase was EGFR L858R/T790M/C797S (purchased from BPS Bioscience).
(§3) The main steps of ELISA are listed as follows: the substrate Poly(Glu, Tyr) 4:1 was diluted with potassium ion-free PBS to 2.5 μg/well, incubated at 37° C. for 12-16 h to coat the ELISA plate for use. An ATP solution (final concentration of 5 μM) diluted with a reaction buffer (50 mM HEPES pH 7.4, 20 mM MgCl2, 0.1 mM MnCl2, 0.2 mM Na3VO4, 1 mM DTT) was added to each well. A compound or solvent control was added, and then a kinase was added to start the reaction at 37° C. in a shaker for 1 h. The plate was washed for three times with T-PBS, and 100 μL of antibody PY99 (diluted in T-PBS containing 5 mg/mL BSA, 1: 500) was added, and incubated in a shaker at 37° C. for 0.5 h. After washing the plate with T-PBS, 100 μL of horseradish peroxidase-labeled goat anti-mouse IgG (diluted in T-PBS containing 5 mg/mL BSA, 1: 2000) was added, and incubated in a shaker at 37° C. for 0.5 h. After washing the plate again, a developing liquid containing 0.03% H2O2, 2 mg/mL OPD (0.1 mol/L, in citrate buffer solution pH 5.4) was added at 100 μL/well, and incubated for 1-10 min at 25° C. in darkness. 50 μL/well of 2 M H2SO4 was added to quench the reaction, and read with a wavelength-tunable microplate reader (SpectraMax Plus384, Molecular Devices) at a wavelength of 490 nm. The IC50 value was obtained from the inhibition curve.

EGFR(WT) = EGFR(WT) (Homo sapiens, UniProt P00533); test: ELISA kinase activity detection, EGFR(WT); format: biochemical; conditions: ELISA-based EGFR-TK assay, ATP 5 μM; mean ± SD of at least two determinations
Description: as §1, §2
Enzyme-Linked Immunosorbent Assay (ELISA) was used to detect the ability of a kinase to phosphorylate a substrate and calculate the inhibitory effect of a compound on the kinase activity. […]
as §3

Chain of EGFR L858R/T790M (LR/TM) (P00533 25-1210 T790M/L858R): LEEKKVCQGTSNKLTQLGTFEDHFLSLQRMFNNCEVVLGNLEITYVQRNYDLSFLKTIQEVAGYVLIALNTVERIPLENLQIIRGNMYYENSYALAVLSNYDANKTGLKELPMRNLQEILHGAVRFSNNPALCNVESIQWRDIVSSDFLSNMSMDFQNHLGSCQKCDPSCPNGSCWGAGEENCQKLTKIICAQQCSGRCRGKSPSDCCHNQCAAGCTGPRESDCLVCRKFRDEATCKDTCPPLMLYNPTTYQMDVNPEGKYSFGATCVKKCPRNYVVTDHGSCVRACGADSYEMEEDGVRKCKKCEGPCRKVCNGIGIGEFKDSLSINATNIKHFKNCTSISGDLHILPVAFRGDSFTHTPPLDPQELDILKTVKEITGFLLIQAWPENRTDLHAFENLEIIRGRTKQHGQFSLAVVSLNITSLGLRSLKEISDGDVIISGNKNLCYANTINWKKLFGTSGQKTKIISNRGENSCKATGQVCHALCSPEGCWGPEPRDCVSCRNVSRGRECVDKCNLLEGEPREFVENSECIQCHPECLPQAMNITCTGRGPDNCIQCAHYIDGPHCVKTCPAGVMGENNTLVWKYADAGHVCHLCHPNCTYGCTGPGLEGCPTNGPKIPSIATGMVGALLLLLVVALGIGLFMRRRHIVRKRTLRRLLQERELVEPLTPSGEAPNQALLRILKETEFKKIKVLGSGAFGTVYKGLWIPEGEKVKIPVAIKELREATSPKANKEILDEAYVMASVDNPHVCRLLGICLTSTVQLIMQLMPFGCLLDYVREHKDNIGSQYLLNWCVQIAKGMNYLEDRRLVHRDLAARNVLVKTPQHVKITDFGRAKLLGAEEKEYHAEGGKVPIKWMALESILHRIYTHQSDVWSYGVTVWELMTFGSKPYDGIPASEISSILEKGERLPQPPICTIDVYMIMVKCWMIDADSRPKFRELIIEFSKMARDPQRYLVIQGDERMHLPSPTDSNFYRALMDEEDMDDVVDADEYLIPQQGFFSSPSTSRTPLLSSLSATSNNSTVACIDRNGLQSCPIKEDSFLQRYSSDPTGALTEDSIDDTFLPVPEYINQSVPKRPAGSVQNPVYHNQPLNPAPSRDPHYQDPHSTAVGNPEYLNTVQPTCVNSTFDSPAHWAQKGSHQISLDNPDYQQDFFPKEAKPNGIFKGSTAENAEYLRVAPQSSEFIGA
Chain of EGFR(WT) (P00533 25-1210): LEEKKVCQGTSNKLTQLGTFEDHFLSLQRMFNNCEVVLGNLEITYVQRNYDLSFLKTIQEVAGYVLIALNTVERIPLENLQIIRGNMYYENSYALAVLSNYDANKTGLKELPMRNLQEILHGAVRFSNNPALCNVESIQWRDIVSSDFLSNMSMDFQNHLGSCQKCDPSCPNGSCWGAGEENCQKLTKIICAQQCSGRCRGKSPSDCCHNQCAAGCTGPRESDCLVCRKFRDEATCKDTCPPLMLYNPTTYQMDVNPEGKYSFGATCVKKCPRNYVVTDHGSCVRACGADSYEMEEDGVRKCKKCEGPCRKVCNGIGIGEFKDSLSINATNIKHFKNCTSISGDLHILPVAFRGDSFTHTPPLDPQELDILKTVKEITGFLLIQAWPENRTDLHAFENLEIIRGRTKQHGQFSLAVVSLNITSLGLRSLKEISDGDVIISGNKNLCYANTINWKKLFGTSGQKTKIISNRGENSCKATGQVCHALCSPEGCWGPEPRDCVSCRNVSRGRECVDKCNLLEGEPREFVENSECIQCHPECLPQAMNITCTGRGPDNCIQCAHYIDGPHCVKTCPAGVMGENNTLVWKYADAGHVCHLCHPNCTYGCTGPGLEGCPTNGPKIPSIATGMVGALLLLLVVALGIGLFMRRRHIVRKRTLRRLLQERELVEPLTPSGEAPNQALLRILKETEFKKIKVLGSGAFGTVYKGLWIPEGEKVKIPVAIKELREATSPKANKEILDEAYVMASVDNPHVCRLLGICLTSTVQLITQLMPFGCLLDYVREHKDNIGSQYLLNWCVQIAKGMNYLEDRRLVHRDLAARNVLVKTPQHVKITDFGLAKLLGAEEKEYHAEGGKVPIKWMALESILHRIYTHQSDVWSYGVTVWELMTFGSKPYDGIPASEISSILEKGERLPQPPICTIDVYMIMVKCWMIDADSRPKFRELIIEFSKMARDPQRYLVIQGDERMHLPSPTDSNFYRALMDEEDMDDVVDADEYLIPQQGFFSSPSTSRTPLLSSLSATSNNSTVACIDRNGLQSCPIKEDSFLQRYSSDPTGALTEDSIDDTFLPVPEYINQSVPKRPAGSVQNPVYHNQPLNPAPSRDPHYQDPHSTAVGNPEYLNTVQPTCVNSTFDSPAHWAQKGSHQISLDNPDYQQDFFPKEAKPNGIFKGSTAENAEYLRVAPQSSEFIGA
T1 sequence (P00533 25-1210 T790M/C797S/L858R): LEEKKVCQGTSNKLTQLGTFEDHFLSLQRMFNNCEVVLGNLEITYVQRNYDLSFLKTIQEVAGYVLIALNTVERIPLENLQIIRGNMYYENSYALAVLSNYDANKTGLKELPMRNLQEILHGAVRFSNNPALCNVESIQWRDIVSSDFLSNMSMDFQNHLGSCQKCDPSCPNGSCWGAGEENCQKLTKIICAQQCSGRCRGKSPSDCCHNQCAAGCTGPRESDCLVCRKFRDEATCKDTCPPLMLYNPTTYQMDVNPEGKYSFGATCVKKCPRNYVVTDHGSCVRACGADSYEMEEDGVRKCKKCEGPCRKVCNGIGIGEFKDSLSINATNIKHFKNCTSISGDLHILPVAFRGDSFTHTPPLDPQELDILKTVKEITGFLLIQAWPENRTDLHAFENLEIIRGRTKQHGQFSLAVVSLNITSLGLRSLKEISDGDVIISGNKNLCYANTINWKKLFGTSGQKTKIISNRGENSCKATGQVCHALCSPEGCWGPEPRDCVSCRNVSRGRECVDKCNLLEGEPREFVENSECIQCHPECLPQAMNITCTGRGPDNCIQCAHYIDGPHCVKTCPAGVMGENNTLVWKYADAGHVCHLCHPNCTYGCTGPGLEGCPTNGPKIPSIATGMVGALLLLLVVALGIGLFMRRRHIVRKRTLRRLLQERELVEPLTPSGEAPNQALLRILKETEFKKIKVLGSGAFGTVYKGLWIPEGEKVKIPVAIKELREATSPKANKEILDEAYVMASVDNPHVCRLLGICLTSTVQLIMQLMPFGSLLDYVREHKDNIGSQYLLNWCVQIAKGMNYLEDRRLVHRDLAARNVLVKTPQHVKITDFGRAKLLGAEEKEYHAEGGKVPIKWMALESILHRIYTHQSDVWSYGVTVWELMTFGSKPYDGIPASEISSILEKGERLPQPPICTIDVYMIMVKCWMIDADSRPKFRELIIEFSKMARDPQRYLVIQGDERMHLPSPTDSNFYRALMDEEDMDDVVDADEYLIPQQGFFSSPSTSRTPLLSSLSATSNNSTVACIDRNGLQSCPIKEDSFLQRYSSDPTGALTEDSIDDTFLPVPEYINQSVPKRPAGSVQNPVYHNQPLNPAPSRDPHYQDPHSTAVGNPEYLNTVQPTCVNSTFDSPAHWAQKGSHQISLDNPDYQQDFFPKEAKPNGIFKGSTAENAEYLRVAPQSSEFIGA

Which IC50 (EGFR L858R/T790M (LR/TM)) does the source give for `COc1cc2c(Nc3ccc(NC(=O)C(C)c4ccccc4)cc3F)ncnc2cc1OCC1CCN(C)CC1` (stereo not shown) [Example 9, N-(3-Fluoro-4-((6-methoxy-7-((1-methylpiperidin-4-yl)methoxy)quinazolin-4-yl)amino)phenyl)-2-phenylpropionamide] here?
The IC50 was 2560 ± 800 nM.

What about the melting point of the same molecule?
The melting point was 199.6 to 199.8 °C.

What about the IC50 [1] of the same molecule?
Its IC50 is 4810 ± 2920 nM.

And the IC50 (EGFR(WT))?
The IC50 was 7.7 ± 1.8 nM.
